Assay: Determining the Kpart value: distribution between n-octanol and aqueous tris hydrochloride
Format: physicochemical
Details: n-octanol / aqueous tris hydrochloride 20 mM, pH 7.4, 20° C.; for distribution coefficient Kpart, metal-free compound: spectrophotometry 220 to 340 nm; for distribution coefficient Kpart, iron complex [FeIII-(compound)3]: spectrophotometry 340 to 640 nm, 3:1 iron(III) complex of the compound
Source text: A further factor which plays a role with the bio-availability of iron is the ability of the iron complexes to penetrate biological membranes. One of the possible indicators for this membrane permeation is Kpart. Kpart describes the ratio between the concentration of the compound in n-octanol to the concentration of the compound in the aqueous phase. Although the iron complex as well as its corresponding metal-free compound should be able to enter through the biomembrane, both should also have a certain degree of water solubility. In the course of the present invention the iron complexes preferably have Kpart values in a region between 0.02 and 6.0, preferred between 0.1 and 4.0 and even more preferred between 0.2 and 1.0. The metal-free complex preferably has Kpart values between 0.05 and 3.0, preferred between 0.1 and 2.0 and even more preferred between 0.2 and 1.0.
Determining the Kpart value:
Determined is the distribution in each case for the iron complex as well as for the corresponding metal-free compound between n-octanol and aqueous tris hydrochloride (20 mM, pH 7.4; tris: 2 amino-2-hydroxymethylpropane-1,3-diol). The concentration of the substances in the respective phase is measured at 20° C. by way of spectrophotometry. 5 ml of a 10^−4M aqueous solution of iron complex and metal-free compound are mixed with 5 ml of n-octanol for one minute. The aqueous n-octanol mixture arising with this is centrifuged at 1,000 G for 30 seconds. The two resulting phases are separated from one another for evaluating the concentration. The metal-free compound is measured in a region of 220 to 340 nanometers whilst for evaluating the concentration of the corresponding iron complex a region between 340 and 640 nanometers is selected. These regions also apply to the 3:1 maltol-iron(III)-complex.

| distribution coefficient Kpart, metal-free compound | distribution coefficient Kpart, iron complex [FeIII-(compound)3] | Structure (SMILES) |
| --- | --- | --- |
| 0.52 | 1.06 | CCn1cccc(O)c1=O [1-ethyl-3-hydroxypyri-2-one] |
| 0.44 | 0.10 | Cn1cccc(O)c1=O [3-hydroxy-1-methylpyride-2-one] |
| 0.66 | 0.5 | Cc1occc(=O)c1O [3-hydroxy-2-methyl-4 pyrone] |
